Test results taken from paper PMC6232370, “Metabolism and Bioactivation of Corynoline With Characterization of the Glutathione/Cysteine Conjugate and Evaluation of Its Hepatotoxicity in Mice” (Frontiers in Pharmacology, 2018).

How the values were obtained:
[1] = tested on: human A549, SK-OV-3, SK-MEL-2, and HCT15 tumor cells; parameters: method as in Choi et al. (2007); details: ref Choi et al. (2007), read-out: 50% growth inhibition values; cited from earlier work
[2] = Tissue distribution of CRL in mice; type: in vivo; details: 250 mg/kg intragastric
Experimental: Thirty BALB/c male mice were fasted overnight but allowed access to water before drug administration. Five groups of mice (six mice per group) were intragastric administered a single dose of 250 mg/kg CRL. The mice in five groups were euthanized by decapitation at pre-dose, 0.5, 2, 4, and 8 h after dosing, respectively. Tissues including heart, liver, spleen, lung, kidney, and brain were dissected and washed with saline, then were blotted with filter paper and weighed accurately. The tissue samples were homogenized in ice-cold saline (1:3, w/v, g/mL). These tissue homogenates were then stored at −20°C and allowed to thaw at room temperature and vortex-mixed before processing. A 200 μL tissue sample was mixed with 5 μL IS solution (donepezil, 500 ng/mL). The mixture was deproteinized with 800 μL of acetonitrile, vortexed for 5 min, and then centrifuged at 17,000 × g for 10 min. An aliquot of 5 μL supernatant was then used for quantifying the content of CRL in each tissue by the LC-MS/MS.

BALB/c male mice = experiment: Hepatotoxicity study in mice; type: in vivo
Experimental: Thirty-six BALB/c male mice were randomly divided into four groups (nine animals per group) including control group, low (125 mg/kg), middle (250 mg/kg), and high (500 mg/kg) three dosages group. CRL was dissolved firstly in DMSO and then prepared in 0.5% carboxymethyl cellulose sodium (CMC-Na) to make a suspension of 10, 20, and 30 mg/mL and the final concentration of DMSO in the suspension was no more than 5%. CRL was administered to the mice in different groups through oral gavage. Mice in control group were given equal volume 0.5% CMC-Na (contained 5% DMSO) solution with high dosage group. Blood samples were drawn from the orbital vein using cannulation under anesthesia at 24 h after oral administration. After centrifugation at 2,000 g for 15 min, the serum samples were stored at −20°C until analysis. Then mice were euthanized by decapitation after blood collection. Samples of liver were obtained and one part of which was fixed in 10% formaldehyde for observing histological change with optical microscope. The content of ALT and AST in mice serum was detected according the operation instruction of the kit.

[3] = mice, 24 h after oral administration of 125, 250, and 500 mg/kg, P > 0.05

CN1Cc2c(ccc3c2OCO3)[C@@]2(C)[C@@H](O)Cc3cc4c(cc3[C@@H]12)OCO4 [CRL, Corynoline]
IC50 [1]: 5.27 to 6.14 µM | Blood–brain barrier passage [2]: could traverse the blood–brain barrier | Highest concentration level in brain ([2]; single dose, mean ± SD): 40.53 ± 20.50 µg/g | Highest concentration level in kidney ([2]; single dose, mean ± SD): 68.73 ± 46.89 µg/g | Highest concentration level in liver ([2]; single dose, mean ± SD): 92.91 ± 65.11 µg/g | Highest concentration level in lung ([2]; single dose, mean ± SD): 27.27 ± 22.17 µg/g | Highest concentration level in spleen ([2]; single dose, mean ± SD): 25.22 ± 18.67 µg/g | concentration at 2 h ([2]; male, BALB/c, mouse, plasma, oral, at 2 h post dosing, mean ± SD): 18400 ± 14200 ng/mL | Tmax ([2]; male, BALB/c, mouse, tissues (heart, liver, spleen, lung, kidney, brain), po, tissues, post dosing, read-out: Time to reach the maximum concentration): 2 h | Histopathological examination of the liver (BALB/c male mice; mice, 125, 250, and 500 mg/kg oral, 24 h): no pathological changes | ALT in serum and livers compared with the control group (BALB/c male mice; [3]): not significantly different | AST in serum and livers compared with the control group (BALB/c male mice; [3]): not significantly different | Abnormal behaviors compared with control group (BALB/c male mice; mice, drug treatment groups 125–500 mg/kg oral, at about 10 min after administration, more pronounced with increasing dosage): lying on the bedding and shivering | Body temperature of most mice (BALB/c male mice; mice, drug treatment groups 125–500 mg/kg oral, more pronounced with increasing dosage): lower than normal | Hepatotoxicity / acute liver injury (BALB/c male mice; mice, experimental dosage 125–500 mg/kg oral): no obvious hepatotoxicity | Dead mice after drug administration (all dosage groups) (BALB/c male mice; mouse, in vivo): three of them were dead | Dead mice in high dosage group (BALB/c male mice; mouse, in vivo): two mice | Dead mice in middle dosage group (BALB/c male mice; mouse, in vivo): one mouse
